Results reported in ChEMBL document CHEMBL4507282, “Data for DCP probe BI-1950” (2021).
The source made the active and inactive calls. The rule behind the calls is not given here.

Columns and labels:
[1] = target: Calcium/calmodulin-dependent protein kinase type II subunit alpha (Homo sapiens) (UniProt Q9UQM7); details: Compound concentration 1000.0 nM
[2] = target: MAP kinase-interacting serine/threonine-protein kinase 2 (Homo sapiens) (UniProt Q9HBH9); details: Compound concentration 1000.0 nM
[3] = target: Mitogen-activated protein kinase kinase kinase 7 (Homo sapiens) (UniProt O43318); details: Compound concentration 1000.0 nM
Integrin alpha-L = Integrin alpha-L (Homo sapiens, UniProt P20701); assay: ITGAL binding assay
[4] = target: Serine/threonine-protein kinase MARK1 (Homo sapiens) (UniProt Q9P0L2); details: Compound concentration 1000.0 nM
[5] = target: Mitogen-activated protein kinase kinase kinase kinase 2 (Homo sapiens) (UniProt Q12851); details: Compound concentration 1000.0 nM
[6] = target: Dual specificity mitogen-activated protein kinase kinase 6 (Homo sapiens) (UniProt P52564); details: Compound concentration 1000.0 nM
[7] = target: Mitogen-activated protein kinase 4 (Homo sapiens) (UniProt P31152); details: Compound concentration 1000.0 nM
[8] = target: Tyrosine-protein kinase ZAP-70 (Homo sapiens) (UniProt P43403); details: Compound concentration 1000.0 nM
[9] = test system: Fibroblast growth factor receptor 3 (Homo sapiens), P22607 [G697C]; details: Compound concentration 1000.0 nM
[10] = target: Ephrin type-A receptor 2 (Homo sapiens) (UniProt P29317); details: Compound concentration 1000.0 nM
[11] = target: Receptor-type tyrosine-protein kinase FLT3 (Homo sapiens) (UniProt P36888); details: Compound concentration 1000.0 nM
Receptor-type tyrosine-protein kinase FLT3 (Homo sapiens), sequence (P36888 whole entry): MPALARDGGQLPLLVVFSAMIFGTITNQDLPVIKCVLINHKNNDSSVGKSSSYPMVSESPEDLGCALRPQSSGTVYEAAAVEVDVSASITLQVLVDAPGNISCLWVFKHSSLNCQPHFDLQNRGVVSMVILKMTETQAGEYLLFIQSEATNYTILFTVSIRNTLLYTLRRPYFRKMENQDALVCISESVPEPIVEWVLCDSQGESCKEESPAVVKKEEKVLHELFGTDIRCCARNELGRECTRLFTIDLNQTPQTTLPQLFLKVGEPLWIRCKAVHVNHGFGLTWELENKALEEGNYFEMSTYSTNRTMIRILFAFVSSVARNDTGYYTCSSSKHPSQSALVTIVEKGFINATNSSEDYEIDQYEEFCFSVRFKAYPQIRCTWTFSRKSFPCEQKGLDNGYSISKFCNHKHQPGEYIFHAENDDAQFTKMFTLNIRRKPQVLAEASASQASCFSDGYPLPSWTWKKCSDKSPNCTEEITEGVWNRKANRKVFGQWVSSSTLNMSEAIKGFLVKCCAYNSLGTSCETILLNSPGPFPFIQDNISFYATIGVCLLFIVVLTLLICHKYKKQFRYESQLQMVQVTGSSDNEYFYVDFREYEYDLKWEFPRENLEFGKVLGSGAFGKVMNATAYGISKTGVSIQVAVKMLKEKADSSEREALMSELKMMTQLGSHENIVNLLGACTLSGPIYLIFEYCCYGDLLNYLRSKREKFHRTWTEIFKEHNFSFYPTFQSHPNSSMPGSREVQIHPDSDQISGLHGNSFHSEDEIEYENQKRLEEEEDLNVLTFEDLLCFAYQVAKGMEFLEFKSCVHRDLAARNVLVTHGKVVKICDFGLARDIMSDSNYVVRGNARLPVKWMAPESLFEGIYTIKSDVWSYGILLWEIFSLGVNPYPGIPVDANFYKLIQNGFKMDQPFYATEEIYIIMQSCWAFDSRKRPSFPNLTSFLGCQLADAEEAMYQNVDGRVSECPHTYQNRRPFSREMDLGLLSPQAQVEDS

[12] = target: Tyrosine-protein kinase Fyn (Homo sapiens) (UniProt P06241); details: Compound concentration 1000.0 nM
Tyrosine-protein kinase Fyn (Homo sapiens), sequence (P06241 2-537 limits assumed): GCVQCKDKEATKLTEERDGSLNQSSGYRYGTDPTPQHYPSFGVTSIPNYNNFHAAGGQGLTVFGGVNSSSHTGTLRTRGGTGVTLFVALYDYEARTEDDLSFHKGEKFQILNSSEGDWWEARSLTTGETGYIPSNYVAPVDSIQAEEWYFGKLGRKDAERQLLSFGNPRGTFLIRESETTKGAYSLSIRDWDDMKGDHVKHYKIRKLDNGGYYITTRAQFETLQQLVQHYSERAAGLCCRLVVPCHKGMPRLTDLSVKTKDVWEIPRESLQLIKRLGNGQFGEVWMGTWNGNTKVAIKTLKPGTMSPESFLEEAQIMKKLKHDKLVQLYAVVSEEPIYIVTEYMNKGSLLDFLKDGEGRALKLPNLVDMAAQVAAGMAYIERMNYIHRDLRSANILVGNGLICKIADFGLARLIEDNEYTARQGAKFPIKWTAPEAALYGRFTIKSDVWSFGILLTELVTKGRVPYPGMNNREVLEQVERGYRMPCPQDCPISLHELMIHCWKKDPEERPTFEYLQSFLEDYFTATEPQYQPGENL

[13] = target: 5'-AMP-activated protein kinase catalytic subunit alpha-1 (Homo sapiens) (UniProt Q13131); details: Compound concentration 1000.0 nM
[14] = target: Glycogen synthase kinase-3 beta (Homo sapiens) (UniProt P49841); details: Compound concentration 1000.0 nM
[15] = target: Tyrosine-protein kinase receptor Tie-1 (Homo sapiens) (UniProt P35590); details: Compound concentration 1000.0 nM
[16] = target: Receptor-type tyrosine-protein kinase FLT3 (Homo sapiens) (UniProt P36888); details: Compound concentration 1000.0 nM; remark: listed apart in the source
[17] = target: Mitotic checkpoint serine/threonine-protein kinase BUB1 (Homo sapiens) (UniProt O43683); details: Compound concentration 1000.0 nM
[18] = target: Serine/threonine-protein kinase WNK3 (Homo sapiens) (UniProt Q9BYP7); details: Compound concentration 1000.0 nM
[19] = target: cAMP-dependent protein kinase catalytic subunit beta (Homo sapiens) (UniProt P22694); details: Compound concentration 1000.0 nM
[20] = target: LIM domain kinase 2 (Homo sapiens) (UniProt P53671); details: Compound concentration 1000.0 nM
[21] = target: Focal adhesion kinase 1 (Homo sapiens) (UniProt Q05397); details: Compound concentration 1000.0 nM
Focal adhesion kinase 1 (Homo sapiens), sequence (Q05397 2-1052 limits assumed): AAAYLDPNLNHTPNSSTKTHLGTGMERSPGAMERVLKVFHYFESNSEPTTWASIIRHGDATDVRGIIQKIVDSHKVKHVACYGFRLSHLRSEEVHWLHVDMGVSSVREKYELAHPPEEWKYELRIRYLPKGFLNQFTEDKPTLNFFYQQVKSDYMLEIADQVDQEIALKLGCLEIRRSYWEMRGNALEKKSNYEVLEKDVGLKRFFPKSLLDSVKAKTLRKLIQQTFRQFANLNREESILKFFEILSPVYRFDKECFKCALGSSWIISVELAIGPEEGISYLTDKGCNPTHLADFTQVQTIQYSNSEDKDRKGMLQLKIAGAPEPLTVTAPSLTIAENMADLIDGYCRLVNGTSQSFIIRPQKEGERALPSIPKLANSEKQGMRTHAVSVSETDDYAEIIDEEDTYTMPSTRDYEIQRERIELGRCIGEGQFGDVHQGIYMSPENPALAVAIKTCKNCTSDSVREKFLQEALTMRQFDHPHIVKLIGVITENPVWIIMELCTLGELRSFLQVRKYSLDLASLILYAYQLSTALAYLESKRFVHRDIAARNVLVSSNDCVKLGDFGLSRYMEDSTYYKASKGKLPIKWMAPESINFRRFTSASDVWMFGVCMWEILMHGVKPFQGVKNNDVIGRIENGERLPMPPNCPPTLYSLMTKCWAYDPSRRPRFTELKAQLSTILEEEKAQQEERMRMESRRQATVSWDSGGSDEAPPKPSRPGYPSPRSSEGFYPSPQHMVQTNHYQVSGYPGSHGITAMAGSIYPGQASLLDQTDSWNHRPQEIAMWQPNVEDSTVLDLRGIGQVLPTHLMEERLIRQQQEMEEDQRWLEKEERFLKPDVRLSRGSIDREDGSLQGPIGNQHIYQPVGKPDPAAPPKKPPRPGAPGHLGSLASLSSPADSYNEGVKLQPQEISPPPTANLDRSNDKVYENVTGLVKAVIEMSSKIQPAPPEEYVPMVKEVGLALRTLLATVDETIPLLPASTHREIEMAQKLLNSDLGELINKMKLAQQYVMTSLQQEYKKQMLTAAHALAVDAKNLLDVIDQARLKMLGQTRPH

[22] = target: Sigma intracellular receptor 2 (Homo sapiens, UniProt Q5BJF2); details: Compound concentration 10.0 uM
[23] = target: D(2) dopamine receptor (Homo sapiens) (UniProt P14416); details: Compound concentration 10.0 uM
[24] = target: Serine/threonine-protein kinase PAK 6 (Homo sapiens) (UniProt Q9NQU5); details: Compound concentration 1000.0 nM
[25] = target: Vascular endothelial growth factor receptor 1 (Homo sapiens) (UniProt P17948); details: Compound concentration 1000.0 nM
[26] = test system: Tyrosine-protein kinase ABL1 (Homo sapiens), P00519 [Q252H]; details: Compound concentration 1000.0 nM
[27] = target: Ankyrin repeat and protein kinase domain-containing protein 1 (Homo sapiens) (UniProt Q8NFD2); details: Compound concentration 1000.0 nM
[28] = target: Serine/threonine-protein kinase WNK2 (Homo sapiens) (UniProt Q9Y3S1); details: Compound concentration 1000.0 nM
[29] = target: Non-receptor tyrosine-protein kinase TYK2 (Homo sapiens) (UniProt P29597); details: Compound concentration 1000.0 nM
[30] = target: Mitogen-activated protein kinase kinase kinase kinase 4 (Homo sapiens) (UniProt O95819); details: Compound concentration 1000.0 nM
[31] = target: Tyrosine-protein kinase Fes/Fps (Homo sapiens) (UniProt P07332); details: Compound concentration 1000.0 nM
Tyrosine-protein kinase Fes/Fps (Homo sapiens), sequence (P07332 whole entry): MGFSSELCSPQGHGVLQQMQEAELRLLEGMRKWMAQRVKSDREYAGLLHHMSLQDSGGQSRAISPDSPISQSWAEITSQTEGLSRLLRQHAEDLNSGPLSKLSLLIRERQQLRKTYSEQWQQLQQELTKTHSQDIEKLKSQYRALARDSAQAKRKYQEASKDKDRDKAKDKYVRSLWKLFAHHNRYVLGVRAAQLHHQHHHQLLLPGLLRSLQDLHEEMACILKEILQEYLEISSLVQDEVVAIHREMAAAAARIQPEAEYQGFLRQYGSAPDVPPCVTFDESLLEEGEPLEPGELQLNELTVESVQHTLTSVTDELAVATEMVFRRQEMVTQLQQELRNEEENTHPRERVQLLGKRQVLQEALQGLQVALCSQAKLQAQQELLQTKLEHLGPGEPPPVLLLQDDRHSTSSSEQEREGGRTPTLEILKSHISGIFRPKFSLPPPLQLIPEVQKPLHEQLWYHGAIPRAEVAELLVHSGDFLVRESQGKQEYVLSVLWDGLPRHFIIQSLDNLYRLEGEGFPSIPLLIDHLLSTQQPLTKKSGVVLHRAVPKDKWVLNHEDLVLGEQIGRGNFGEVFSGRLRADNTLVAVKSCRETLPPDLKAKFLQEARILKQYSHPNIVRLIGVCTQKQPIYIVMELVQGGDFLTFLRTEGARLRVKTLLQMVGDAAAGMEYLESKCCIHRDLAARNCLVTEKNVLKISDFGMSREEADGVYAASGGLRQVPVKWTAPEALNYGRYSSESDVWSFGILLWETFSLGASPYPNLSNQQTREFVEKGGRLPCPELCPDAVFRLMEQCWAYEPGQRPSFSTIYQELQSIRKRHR

[32] = target: Serine/threonine-protein kinase B-raf (Homo sapiens) (UniProt P15056); details: Compound concentration 1000.0 nM
[33] = target: Serine/threonine-protein kinase PAK 5 (Homo sapiens) (UniProt Q9P286); details: Compound concentration 1000.0 nM
[34] = test system: eIF-2-alpha kinase GCN2 (Homo sapiens), Q9P2K8 [S808G]; details: Compound concentration 1000.0 nM
[35] = target: Proto-oncogene tyrosine-protein kinase ROS (Homo sapiens) (UniProt P08922); details: Compound concentration 1000.0 nM
[36] = target: Serine/threonine-protein kinase MRCK alpha (Homo sapiens) (UniProt Q5VT25); details: Compound concentration 1000.0 nM
[37] = target: Mitogen-activated protein kinase 6 (Homo sapiens) (UniProt Q16659); details: Compound concentration 1000.0 nM
[38] = target: Dual specificity tyrosine-phosphorylation-regulated kinase 1B (Homo sapiens) (UniProt Q9Y463); details: Compound concentration 1000.0 nM
Dual specificity tyrosine-phosphorylation-regulated kinase 1B (Homo sapiens), sequence (Q9Y463 whole entry, looked up): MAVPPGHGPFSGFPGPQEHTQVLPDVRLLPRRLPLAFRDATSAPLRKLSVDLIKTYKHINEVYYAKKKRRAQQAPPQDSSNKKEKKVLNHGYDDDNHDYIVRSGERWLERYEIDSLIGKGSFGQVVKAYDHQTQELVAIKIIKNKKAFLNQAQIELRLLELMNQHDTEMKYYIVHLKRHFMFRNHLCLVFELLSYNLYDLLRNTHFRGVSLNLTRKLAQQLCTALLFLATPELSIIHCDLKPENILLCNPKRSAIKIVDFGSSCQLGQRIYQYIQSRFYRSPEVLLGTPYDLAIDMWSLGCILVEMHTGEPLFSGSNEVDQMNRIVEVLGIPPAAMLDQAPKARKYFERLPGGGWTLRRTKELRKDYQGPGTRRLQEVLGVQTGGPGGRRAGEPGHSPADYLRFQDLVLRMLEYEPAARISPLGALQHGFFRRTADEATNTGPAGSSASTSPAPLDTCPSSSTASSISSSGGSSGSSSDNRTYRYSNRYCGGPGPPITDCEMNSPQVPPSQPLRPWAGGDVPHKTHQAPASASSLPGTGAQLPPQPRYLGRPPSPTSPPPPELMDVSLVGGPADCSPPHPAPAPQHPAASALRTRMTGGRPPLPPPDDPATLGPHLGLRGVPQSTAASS

[39] = target: Wee1-like protein kinase (Homo sapiens) (UniProt P30291); details: Compound concentration 1000.0 nM
[40] = target: Ephrin type-A receptor 1 (Homo sapiens) (UniProt P21709); details: Compound concentration 1000.0 nM
Ephrin type-A receptor 1 (Homo sapiens), sequence (P21709 whole entry): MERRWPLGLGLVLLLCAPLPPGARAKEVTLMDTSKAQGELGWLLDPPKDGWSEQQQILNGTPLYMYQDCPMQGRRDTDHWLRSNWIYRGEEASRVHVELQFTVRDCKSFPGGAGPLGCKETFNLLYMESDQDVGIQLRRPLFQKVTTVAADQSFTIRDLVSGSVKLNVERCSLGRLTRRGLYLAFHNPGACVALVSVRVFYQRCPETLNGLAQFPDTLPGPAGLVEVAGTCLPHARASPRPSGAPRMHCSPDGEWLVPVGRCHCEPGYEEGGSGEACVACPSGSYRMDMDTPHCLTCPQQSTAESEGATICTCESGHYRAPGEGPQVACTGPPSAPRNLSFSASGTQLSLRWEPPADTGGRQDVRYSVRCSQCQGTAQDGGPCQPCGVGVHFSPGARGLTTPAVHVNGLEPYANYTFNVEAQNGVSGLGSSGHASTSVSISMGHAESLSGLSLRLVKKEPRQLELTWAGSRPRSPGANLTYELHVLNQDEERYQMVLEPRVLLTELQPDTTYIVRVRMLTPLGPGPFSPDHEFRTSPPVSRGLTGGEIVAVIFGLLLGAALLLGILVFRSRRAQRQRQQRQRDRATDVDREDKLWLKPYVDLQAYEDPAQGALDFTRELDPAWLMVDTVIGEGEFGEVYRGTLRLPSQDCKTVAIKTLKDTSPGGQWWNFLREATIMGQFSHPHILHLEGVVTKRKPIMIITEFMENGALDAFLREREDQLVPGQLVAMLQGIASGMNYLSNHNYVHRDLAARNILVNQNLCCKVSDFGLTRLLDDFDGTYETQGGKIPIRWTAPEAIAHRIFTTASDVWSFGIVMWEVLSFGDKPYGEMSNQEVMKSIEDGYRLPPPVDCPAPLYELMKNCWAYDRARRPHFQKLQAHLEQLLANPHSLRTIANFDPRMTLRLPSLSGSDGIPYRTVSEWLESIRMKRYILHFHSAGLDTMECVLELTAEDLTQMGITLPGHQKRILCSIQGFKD

[41] = target: Serine/threonine-protein kinase SBK1 (Homo sapiens) (UniProt Q52WX2); details: Compound concentration 1000.0 nM
[42] = target: Serine/threonine-protein kinase MRCK gamma (Homo sapiens) (UniProt Q6DT37); details: Compound concentration 1000.0 nM
[43] = target: Serine/threonine-protein kinase mTOR (Homo sapiens) (UniProt P42345); details: Compound concentration 1000.0 nM
[44] = target: Interleukin-1 receptor-associated kinase 3 (Homo sapiens) (UniProt Q9Y616); details: Compound concentration 1000.0 nM

Question: With `C[C@@]1(Cc2ccc(C#N)cc2)C(=O)N(c2cc(Cl)cc(Cl)c2)c2ncc(C(=O)NC3(c4nc(C5CCC5)no4)CC3)n21` [BI 9446] as the compound, how does the residual activity [1] read?
Answer: 89%

Question: And the residual activity [2]?
Answer: 100%

Question: What about the residual activity [3] of the same compound?
Answer: 96%

Question: What about the Kd (Integrin alpha-L) of the same compound?
Answer: > 1000 nM (not active)

Question: And the residual activity [4]?
Answer: 100%

Question: What about the residual activity [5] of the same compound?
Answer: 100%

Question: What about the residual activity [6] of the same compound?
Answer: 80%

Question: What about the residual activity [7] of the same compound?
Answer: 100%

Question: And the residual activity [8]?
Answer: 90%

Question: What about the residual activity [9] of the same compound?
Answer: 100%

Question: What about the residual activity [10] of the same compound?
Answer: 56%

Question: What about the residual activity [11] of the same compound?
Answer: 100%

Question: What about the residual activity [12] of the same compound?
Answer: 89%

Question: And the residual activity [13]?
Answer: 100%

Question: And the residual activity [14]?
Answer: 100%

Question: And the residual activity [15]?
Answer: 100%

Question: And the residual activity [16]?
Answer: 98%

Question: What about the residual activity [17] of the same compound?
Answer: 100%

Question: What about the residual activity [18] of the same compound?
Answer: 100%

Question: And the residual activity [19]?
Answer: 100%

Question: What about the residual activity [20] of the same compound?
Answer: 100%

Question: And the residual activity [21]?
Answer: 100%

Question: And the inhibition [22]?
Answer: 58%

Question: And the inhibition [23]?
Answer: 16.4%

Question: And the residual activity [24]?
Answer: 100%

Question: And the residual activity [25]?
Answer: 99%

Question: And the residual activity [26]?
Answer: 100%

Question: What about the residual activity [27] of the same compound?
Answer: 100%

Question: And the residual activity [28]?
Answer: 100%

Question: What about the residual activity [29] of the same compound?
Answer: 100%

Question: And the residual activity [30]?
Answer: 91%

Question: And the residual activity [31]?
Answer: 100%

Question: And the residual activity [32]?
Answer: 100%

Question: And the residual activity [33]?
Answer: 100%

Question: And the residual activity [34]?
Answer: 100%

Question: And the residual activity [35]?
Answer: 100%

Question: And the residual activity [36]?
Answer: 100%

Question: What about the residual activity [37] of the same compound?
Answer: 100%

Question: What about the residual activity [38] of the same compound?
Answer: 80%

Question: What about the residual activity [39] of the same compound?
Answer: 100%

Question: What about the residual activity [40] of the same compound?
Answer: 100%

Question: What about the residual activity [41] of the same compound?
Answer: 95%

Question: And the residual activity [42]?
Answer: 100%

Question: And the residual activity [43]?
Answer: 91%

Question: And the residual activity [44]?
Answer: 100%

Question: Which residual activity [1] does the source give for `C[C@H](NC(=O)c1cnc2n1[C@](C)(Cc1ccc(C#N)cc1)C(=O)N2c1cc(Cl)c(F)c(Cl)c1)C(=O)NC1(c2ccccn2)CC1` [BI 1950] here?
Answer: 96%

Question: And the residual activity [2]?
Answer: 100%

Question: What about the residual activity [3] of the same compound?
Answer: 97%

Question: What about the Kd (Integrin alpha-L) of the same compound?
Answer: 9 nM (active)

Question: And the residual activity [4]?
Answer: 100%

Question: And the residual activity [5]?
Answer: 100%

Question: And the residual activity [6]?
Answer: 80%

Question: What about the residual activity [7] of the same compound?
Answer: 100%

Question: And the residual activity [8]?
Answer: 100%

Question: What about the residual activity [9] of the same compound?
Answer: 100%

Question: What about the residual activity [10] of the same compound?
Answer: 75%

Question: What about the residual activity [11] of the same compound?
Answer: 100%

Question: And the residual activity [12]?
Answer: 70%

Question: And the residual activity [13]?
Answer: 100%

Question: And the residual activity [14]?
Answer: 100%

Question: What about the residual activity [15] of the same compound?
Answer: 100%

Question: What about the residual activity [16] of the same compound?
Answer: 100%

Question: And the residual activity [17]?
Answer: 100%

Question: What about the residual activity [18] of the same compound?
Answer: 78%

Question: What about the residual activity [19] of the same compound?
Answer: 75%

Question: What about the residual activity [20] of the same compound?
Answer: 100%

Question: And the residual activity [21]?
Answer: 100%

Question: And the inhibition [22]?
Answer: 25.9%

Question: What about the inhibition [23] of the same compound?
Answer: 7.62%

Question: What about the residual activity [24] of the same compound?
Answer: 96%

Question: And the residual activity [25]?
Answer: 100%

Question: What about the residual activity [26] of the same compound?
Answer: 100%

Question: What about the residual activity [27] of the same compound?
Answer: 100%

Question: And the residual activity [28]?
Answer: 100%

Question: What about the residual activity [29] of the same compound?
Answer: 100%

Question: What about the residual activity [30] of the same compound?
Answer: 100%

Question: What about the residual activity [31] of the same compound?
Answer: 100%

Question: What about the residual activity [32] of the same compound?
Answer: 100%

Question: What about the residual activity [33] of the same compound?
Answer: 100%

Question: What about the residual activity [34] of the same compound?
Answer: 100%

Question: And the residual activity [35]?
Answer: 100%

Question: What about the residual activity [36] of the same compound?
Answer: 100%

Question: What about the residual activity [37] of the same compound?
Answer: 100%

Question: What about the residual activity [38] of the same compound?
Answer: 100%

Question: And the residual activity [39]?
Answer: 100%

Question: And the residual activity [40]?
Answer: 100%

Question: And the residual activity [41]?
Answer: 100%

Question: What about the residual activity [42] of the same compound?
Answer: 100%

Question: And the residual activity [43]?
Answer: 96%

Question: What about the residual activity [44] of the same compound?
Answer: 100%
